Inconclusive results are not listed.
Test system: BDF1 mice, s.c. Lewis lung carcinoma, T/C %
Assay: NCI In Vivo Anticancer Drug Screen. Data for tumor model Lewis Lung Carcinoma (subcutaneous) in B6D2F1 (BDF1) mice
Method in brief: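 Readout: survival or tumor size, expressed as treated (T) over vehicle control (C). Transplantable tumor implanted in mice; compound given to the treated group.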

O=NN(CCCl)C(=O)Nc1ccc(CCCl)cc1
T/C (endpoint: mean tumor weight, dose: 1.5 mg/kg/injection, schedule: Q01DX001 (ip), vehicle: carboxymethylcellulose (CMC), higher = larger tumour): 91 % of control | T/C (endpoint: mean tumor weight, dose: 3.0 mg/kg/injection, schedule: Q01DX001 (ip), vehicle: carboxymethylcellulose (CMC), higher = larger tumour): 106 % of control | T/C (endpoint: mean tumor weight, dose: 6.0 mg/kg/injection, schedule: Q01DX001 (ip), vehicle: carboxymethylcellulose (CMC), higher = larger tumour): 90 % of control | T/C (endpoint: mean tumor weight, dose: 12.0 mg/kg/injection, schedule: Q01DX001 (ip), vehicle: carboxymethylcellulose (CMC), higher = larger tumour): 52 % of control

CC1(c2ccc(N(CCCl)CCCl)cc2)NC(=O)NC1=O (centres undefined)
T/C (endpoint: median survival time, dose: 12.5 mg/kg/injection, schedule: Q01DX009 (ip), vehicle: Klucel (hydroxypropylcellulose) (HPC), higher = longer survival): 111 % of control | T/C (endpoint: median survival time, dose: 25.0 mg/kg/injection, schedule: Q01DX009 (ip), vehicle: Klucel (hydroxypropylcellulose) (HPC), higher = longer survival): 91 % of control | T/C (endpoint: median survival time, dose: 50.0 mg/kg/injection, schedule: Q01DX009 (ip), vehicle: Klucel (hydroxypropylcellulose) (HPC), higher = longer survival): 98 % of control | T/C (endpoint: median survival time, dose: 100.0 mg/kg/injection, schedule: Q01DX009 (ip), vehicle: Klucel (hydroxypropylcellulose) (HPC), higher = longer survival): 115 % of control

NC(Cc1cc(Cl)c(O)c(Cl)c1)C(=O)O (centres undefined)
T/C (endpoint: median survival time, dose: 18.75 mg/kg/injection, schedule: Q01DX009 (ip), vehicle: saline, higher = longer survival): 115 % of control | T/C (endpoint: median survival time, dose: 37.5 mg/kg/injection, schedule: Q01DX009 (ip), vehicle: saline, higher = longer survival): 117 % of control | T/C (endpoint: median survival time, dose: 75.0 mg/kg/injection, schedule: Q01DX009 (ip), vehicle: saline, higher = longer survival): 115 % of control

COc1cccc(/C=N\NC(=O)C(C)SC(C)C(=O)N/N=C/c2cccc(OC)c2)c1 (centres undefined)
T/C (endpoint: mean tumor weight, dose: 25.0 mg/kg/injection, schedule: Q01DX011 (ip), vehicle: carboxymethylcellulose (CMC), higher = larger tumour): 82 % of control | T/C (endpoint: mean tumor weight, dose: 50.0 mg/kg/injection, schedule: Q01DX011 (ip), vehicle: carboxymethylcellulose (CMC), higher = larger tumour): 113 % of control | T/C (endpoint: mean tumor weight, dose: 100.0 mg/kg/injection, schedule: Q01DX011 (ip), vehicle: carboxymethylcellulose (CMC), higher = larger tumour): 67 % of control | T/C (endpoint: mean tumor weight, dose: 200.0 mg/kg/injection, schedule: Q01DX011 (ip), vehicle: carboxymethylcellulose (CMC), higher = larger tumour): 101 % of control | T/C (endpoint: mean tumor weight, dose: 400.0 mg/kg/injection, schedule: Q01DX011 (ip), vehicle: carboxymethylcellulose (CMC), higher = larger tumour): 99 % of control | T/C (endpoint: mean tumor weight, dose: 600.0 mg/kg/injection, schedule: Q01DX011 (ip), vehicle: carboxymethylcellulose (CMC), higher = larger tumour): 85 % of control

CC1CC(C)(O)C2C3(C)CCCC2(COC3=O)C12CCC1(CCOC1=O)O2 (centres undefined)
T/C (endpoint: median survival time, dose: 2.5 mg/kg/injection, schedule: Q01DX009 (ip), vehicle: saline with Tween-80, higher = longer survival): 109 % of control | T/C (endpoint: median survival time, dose: 5.0 mg/kg/injection, schedule: Q01DX009 (ip), vehicle: saline with Tween-80, higher = longer survival): 108 % of control | T/C (endpoint: median survival time, dose: 10.0 mg/kg/injection, schedule: Q01DX009 (ip), vehicle: saline with Tween-80, higher = longer survival): 100 % of control

O=NN(CCCl)C(=O)NC1CS(=O)(=O)CS(=O)(=O)C1
T/C (endpoint: median survival time, dose: 5.3 mg/kg/injection, schedule: Q04DX004 (ip), vehicle: saline with Tween-80, higher = longer survival): 82 % of control | T/C (endpoint: median survival time, dose: 8.0 mg/kg/injection, schedule: Q04DX004 (ip), vehicle: saline with Tween-80, higher = longer survival): 151 % of control | T/C (endpoint: median survival time, dose: 12.0 mg/kg/injection, schedule: Q04DX004 (ip), vehicle: saline with Tween-80, higher = longer survival): 99 % of control | T/C (endpoint: median survival time, dose: 18.0 mg/kg/injection, schedule: Q04DX004 (ip), vehicle: saline with Tween-80, higher = longer survival): 118 % of control

OC(C1CO1)C(O)C1CO1 (centres undefined)
T/C (endpoint: mean tumor weight (est.), dose: 1.0 mg/kg/injection, schedule: Q01DX009 (ip), vehicle: saline, higher = larger tumour): 73 % of control | T/C (endpoint: mean tumor weight (est.), dose: 1.0 mg/kg/injection, schedule: Q04DX003 (ip), vehicle: saline, higher = larger tumour): 65 % of control | T/C (endpoint: mean tumor weight (est.), dose: 2.0 mg/kg/injection, schedule: Q01DX009 (ip), vehicle: saline, higher = larger tumour): 46 % of control | T/C (endpoint: mean tumor weight (est.), dose: 2.0 mg/kg/injection, schedule: Q04DX003 (ip), vehicle: saline, higher = larger tumour): 45 % of control | T/C (endpoint: mean tumor weight (est.), dose: 4.0 mg/kg/injection, schedule: Q04DX003 (ip), vehicle: saline, higher = larger tumour): 63 % of control | T/C (endpoint: median survival time, dose: 1.0 mg/kg/injection, schedule: Q01DX009 (ip), vehicle: saline, higher = longer survival): 95 % of control | T/C (endpoint: median survival time, dose: 1.0 mg/kg/injection, schedule: Q04DX003 (ip), vehicle: saline, higher = longer survival): 104 % of control | T/C (endpoint: median survival time, dose: 2.0 mg/kg/injection, schedule: Q01DX009 (ip), vehicle: saline, higher = longer survival): 117 % of control | T/C (endpoint: median survival time, dose: 2.0 mg/kg/injection, schedule: Q04DX003 (ip), vehicle: saline, higher = longer survival): 104 % of control | T/C (endpoint: median survival time, dose: 4.0 mg/kg/injection, schedule: Q04DX003 (ip), vehicle: saline, higher = longer survival): 123 % of control

CN(C1=NS(=O)(=O)N=C(N(C)c2ccccc2)O1)c1ccccc1
T/C (endpoint: median survival time, dose: 14.37 mg/kg/injection, schedule: Q01DX009 (ip), vehicle: Klucel (hydroxypropylcellulose) (HPC), higher = longer survival): 111 % of control | T/C (endpoint: median survival time, dose: 28.75 mg/kg/injection, schedule: Q01DX009 (ip), vehicle: Klucel (hydroxypropylcellulose) (HPC), higher = longer survival): 104 % of control | T/C (endpoint: median survival time, dose: 57.5 mg/kg/injection, schedule: Q01DX009 (ip), vehicle: Klucel (hydroxypropylcellulose) (HPC), higher = longer survival): 103 % of control | T/C (endpoint: median survival time, dose: 115.0 mg/kg/injection, schedule: Q01DX009 (ip), vehicle: Klucel (hydroxypropylcellulose) (HPC), higher = longer survival): 100 % of control | T/C (endpoint: median survival time, dose: 230.0 mg/kg/injection, schedule: Q01DX009 (ip), vehicle: Klucel (hydroxypropylcellulose) (HPC), higher = longer survival): 96 % of control
